Like-named read-outs stand apart in the source and are kept apart here.
Legend:
CMV polymerase = target: T1, CMV polymerase (Human cytomegalovirus, UniProt P08546); test: modified version of the HCMV polymerase assay (100% DMSO dilution, DTT, different enzyme lot); format: biochemical; details: for IC50: read-out: IC50
T1 construct: made in house; host or cells: recombinant baculovirus-infected SF-9 cells
Description: The HCMV polymerase assay is performed using a scintillation proximity assay (SPA) as described in several references, such as N. D. Cook, et al., Pharmaceutical Manufacturing International, pages 49-53 (1992); K. Takeuchi, Laboratory Practice, September issue (1992); U.S. Pat. No. 4,568,649 (1986); which are incorporated by reference herein. Reactions are performed in 96-well plates. The assay is conducted in 100 μl volume with 5.4 mM HEPES (pH 7.5), 11.7 mM KCl, 4.5 mM MgCl2, 0.36 mg/ml BSA, and 90 nM ^3H-dTTP. Assays are run with and without CHAPS, (3-[(3-Cholamidopropyl)-dimethylammonio]-1-propane-sulfonate) at a final concentration of 2 mM. HCMV is diluted in enzyme dilution buffer containing 50% glycerol, 250 mM NaCl, 10 mM HEPES (pH 7.5), 100 pg/ml BSA, and 0.01% sodium azide. The HCMV polymerase, which is expressed in recombinant baculovirus-infected SF-9 cells and purified according to literature procedures, is added at 10% (or 10 μl) of the final reaction volume, i.e., 100 μl. Compounds are diluted in 50% DMSO and 10 μl are added to each well. Control wells contain an equivalent concentration of DMSO. Unless noted otherwise, reactions are initiated via the addition of 6 nM biotinylated poly(dA)-oligo(dT) template/primer to reaction mixtures containing the enzyme, substrate, and compounds of interest. Plates are incubated in a 25° C. of 37° C. H2O bath and terminated via the addition of 40 μl/reaction of 0.5 M EDTA (pH 8) per well. Reactions are terminated within the time-frame during which substrate incorporation is linear and varied depending upon the enzyme and conditions used, i.e., 30 min. for HCMV polymerase. Ten μl of streptavidin-SPA beads (20 mg/ml in PBS/10% glycerol) are added following termination of the reaction. Plates are incubated 10 min. at 37° C., then equilibrated to room temperature, and counted on a Packard Topcount. Linear regressions are performed and IC50's are calculated using computer software. Results of the testing of compounds of the present invention in this assay are shown in Tables 1, 2, 5, 9, 10, 11, 13 (except for the last compound which was tested under modified conditions) and 14 below.
A modified version of the above HCMV polymerase assay is performed as described above, but with the following changes: Compounds are diluted in 100% DMSO until final dilution into assay buffer. In the previous assay, compounds are diluted in 50% DMSO. 4.5 mM dithiotherotol (DTT) is added to the polymerase buffer.

T1 sequence (P08546 whole entry): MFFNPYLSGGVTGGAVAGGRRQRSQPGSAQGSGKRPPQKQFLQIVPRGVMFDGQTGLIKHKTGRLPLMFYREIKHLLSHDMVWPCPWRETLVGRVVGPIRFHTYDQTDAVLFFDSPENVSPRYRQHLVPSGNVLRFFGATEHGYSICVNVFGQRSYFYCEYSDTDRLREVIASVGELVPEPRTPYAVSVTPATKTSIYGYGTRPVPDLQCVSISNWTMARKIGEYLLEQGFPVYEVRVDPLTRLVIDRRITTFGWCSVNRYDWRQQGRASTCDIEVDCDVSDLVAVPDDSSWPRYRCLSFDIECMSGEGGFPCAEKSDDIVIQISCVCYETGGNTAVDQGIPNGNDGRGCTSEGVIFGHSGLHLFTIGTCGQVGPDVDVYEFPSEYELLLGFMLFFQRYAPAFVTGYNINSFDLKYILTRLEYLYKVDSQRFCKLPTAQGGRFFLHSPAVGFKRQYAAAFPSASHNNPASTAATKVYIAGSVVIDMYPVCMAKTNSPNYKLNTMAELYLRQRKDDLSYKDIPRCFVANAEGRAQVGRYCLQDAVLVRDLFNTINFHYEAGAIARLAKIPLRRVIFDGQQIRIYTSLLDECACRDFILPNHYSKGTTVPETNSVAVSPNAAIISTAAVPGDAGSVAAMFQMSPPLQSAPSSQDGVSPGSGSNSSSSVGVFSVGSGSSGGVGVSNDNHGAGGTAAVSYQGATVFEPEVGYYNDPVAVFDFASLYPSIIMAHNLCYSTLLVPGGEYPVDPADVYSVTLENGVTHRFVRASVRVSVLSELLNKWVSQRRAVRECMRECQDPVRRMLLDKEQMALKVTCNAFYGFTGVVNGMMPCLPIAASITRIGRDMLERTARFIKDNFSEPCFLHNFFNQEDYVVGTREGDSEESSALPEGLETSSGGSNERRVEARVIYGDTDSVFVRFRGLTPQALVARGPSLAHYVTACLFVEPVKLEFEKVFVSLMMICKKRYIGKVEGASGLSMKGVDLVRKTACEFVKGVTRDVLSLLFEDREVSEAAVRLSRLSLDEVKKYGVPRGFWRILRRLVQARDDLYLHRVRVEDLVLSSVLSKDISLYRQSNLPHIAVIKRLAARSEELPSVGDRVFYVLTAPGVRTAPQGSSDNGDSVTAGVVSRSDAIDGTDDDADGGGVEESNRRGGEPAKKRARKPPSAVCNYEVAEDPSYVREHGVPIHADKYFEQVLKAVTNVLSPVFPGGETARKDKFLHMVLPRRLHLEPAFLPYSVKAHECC

Compound: Cc1ccc2c(Cl)cc(S(=O)(=O)NCCCc3ccccc3)c(O)c2n1 [Example 34, 5-Chloro-8-hydroxy-2-methyl-N-(3-phenylpropyl)-7-quinoline-sulfonamide]
- inhibition at 6.25 µM (CMV polymerase; Concentration 6.25 uM, Table 3): 21%
- inhibition at 12.5 µM (CMV polymerase; Concentration 12.5 uM, Table 3): 57%
- inhibition at 25 µM (CMV polymerase; Concentration 25 uM, Table 3): 63%
- inhibition at 50 µM (CMV polymerase; Concentration 50 uM, Table 3): 54%
- inhibition at 100 µM (CMV polymerase; Concentration 100 uM, Table 3): 97%
- IC50 (CMV polymerase; Table 3): 17.2 µM
- melting point: 131 to 134 °C

Compound: Cc1ccc2c(Cl)cc(S(=O)(=O)NCCc3ccc(NS(=O)(=O)c4c(C)noc4C)cc3)c(O)c2n1 [Example 65, 5-Chloro-8-hydroxy-2-methyl-N-[2-[4-[[(3,5-dimethyl-4-isoxazolyl)sulfonyl]amino]phenyl]ethyl]-7-quinoline-sulfonamide]
- inhibition at 3.13 µM (CMV polymerase; Concentration 3.13 μM, Table 6): -8%
- inhibition at 6.25 µM (CMV polymerase; Concentration 6.25 μM, Table 6): -8%
- inhibition at 12.5 µM (CMV polymerase; Concentration 12.5 μM, Table 6): -13%
- inhibition at 25 µM (CMV polymerase; Concentration 25 μM, Table 6): -21%
- inhibition at 50 µM (CMV polymerase; Concentration 50 μM, Table 6): -23%
- inhibition at 100 µM (CMV polymerase; Concentration 100 μM, Table 6): -23%
- inhibition at 200 µM (CMV polymerase; Concentration 200 μM, Table 6): -8%
- IC50 (CMV polymerase; Table 6): > 200 µM
- melting point: 147 to 152 °C (dec.)

Compound: Cc1ccc2c(Cl)cc(S(=O)(=O)NCCOc3ccccc3)c(O)c2n1 [Example 35, 5-Chloro-8-hydroxy-2-methyl-N-(2-phenoxyethyl)-7-quinoline-sulfonamide]
- inhibition at 3.13 µM (CMV polymerase; Concentration 3.13 uM, Table 3): 31%
- inhibition at 6.25 µM (CMV polymerase; Concentration 6.25 uM, Table 3): 41%
- inhibition at 12.5 µM (CMV polymerase; Concentration 12.5 uM, Table 3): 44%
- inhibition at 50 µM (CMV polymerase; Concentration 50 uM, Table 3): 89%
- inhibition at 100 µM (CMV polymerase; Concentration 100 uM, Table 3): 96%
- IC50 (CMV polymerase; Table 3): 10 µM
- melting point: 106 to 107 °C

Compound: Cc1ccc2c(Cl)cc(S(=O)(=O)NCCc3ccc(NS(=O)(=O)c4ccccc4)cc3)c(O)c2n1 [Example 66, 5-Chloro-8-hydroxy-2-methyl-N-[2-[4-[(phenylsulfonyl)-amino]phenyl]ethyl]-7-quinolinesulfonamide]
- inhibition at 6.25 µM (CMV polymerase; Concentration 6.25 μM, Table 6): 41%
- % Inhibition (CMV polymerase; Concentration 6.25 μM, Table 6, 6.25 µM): 30%
- inhibition at 25 µM (CMV polymerase; Concentration 25 μM, Table 6): 57%
- % Inhibition (CMV polymerase; Concentration 25 μM, Table 6, 25 µM): 77%
- inhibition at 50 µM (CMV polymerase; Concentration 50 μM, Table 6): 64%
- % Inhibition (CMV polymerase; Concentration 50 μM, Table 6, 50 µM): 71%
- inhibition at 100 µM (CMV polymerase; Concentration 100 μM, Table 6): 86%
- % Inhibition (CMV polymerase; Concentration 100 μM, Table 6, 100 µM): 91%
- inhibition at 200 µM (CMV polymerase; Concentration 200 μM, Table 6): 89%
- % Inhibition (CMV polymerase; Concentration 200 μM, Table 6, 200 µM): 88%
- melting point: 269 to 272 °C

Compound: Cc1ccc2c(Cl)cc(S(=O)(=O)NCCc3ccccn3)c(O)c2n1 [Example 62, 5-Chloro-8-hydroxy-2-methyl-N-[2-(2-pyridinyl)ethyl]-7-quinolinesulfonamide]
- inhibition at 3.13 µM (CMV polymerase; Concentration 3.13 μM, Table 6): 1%
- inhibition at 6.25 µM (CMV polymerase; Concentration 6.25 μM, Table 6): 3%
- inhibition at 12.5 µM (CMV polymerase; Concentration 12.5 μM, Table 6): 6%
- inhibition at 25 µM (CMV polymerase; Concentration 25 μM, Table 6): 10%
- inhibition at 50 µM (CMV polymerase; Concentration 50 μM, Table 6): 14%
- inhibition at 100 µM (CMV polymerase; Concentration 100 μM, Table 6): 33%
- inhibition at 200 µM (CMV polymerase; Concentration 200 μM, Table 6): 42%
- IC50 (CMV polymerase; Table 6): > 200 µM
- melting point: 153 to 155 °C

Compound: Cc1ccc2c(Cl)cc(S(=O)(=O)NCc3ccccn3)c(O)c2n1 [Example 59, 5-Chloro-8-hydroxy-2-methyl-N-(2-pyridinylmethyl)-7-quinolinesulfonamide]
- inhibition at 3.13 µM (CMV polymerase; Concentration 3.13 μM, Table 6): -7%
- inhibition at 6.25 µM (CMV polymerase; Concentration 6.25 μM, Table 6): -6%
- inhibition at 12.5 µM (CMV polymerase; Concentration 12.5 μM, Table 6): -3%
- inhibition at 25 µM (CMV polymerase; Concentration 25 μM, Table 6): 0%
- inhibition at 50 µM (CMV polymerase; Concentration 50 μM, Table 6): 14%
- inhibition at 100 µM (CMV polymerase; Concentration 100 μM, Table 6): 31%
- inhibition at 200 µM (CMV polymerase; Concentration 200 μM, Table 6): 43%
- IC50 (CMV polymerase; Table 6): > 200 µM
- melting point: 185 to 186 °C

Compound: Cc1ccc2c(Cl)cc(S(=O)(=O)NCCCn3ccnc3)c(O)c2n1 [Example 37, 5-Chloro-8-hydroxy-N-[3-(1H-imidazol-1-yl)propyl]-2-methyl-7-quinolinesulfonamide]
- inhibition at 6.25 µM (CMV polymerase; Concentration 6.25 uM, Table 3): 3%
- inhibition at 12.5 µM (CMV polymerase; Concentration 12.5 uM, Table 3): 12%
- inhibition at 25 µM (CMV polymerase; Concentration 25 uM, Table 3): 21%
- inhibition at 50 µM (CMV polymerase; Concentration 50 uM, Table 3): 50%
- inhibition at 100 µM (CMV polymerase; Concentration 100 uM, Table 3): 55%
- IC50 (CMV polymerase; Table 3): 72.3 µM
- melting point: 194 to 196 °C

Compound: Cc1ccc2c(Cl)cc(S(=O)(=O)NCCCCc3ccccc3)c(O)c2n1 [Example 61, 5-Chloro-8-hydroxy-2-methyl-N-(4-phenylbutyl)-7-quinoline-sulfonamide]
- inhibition at 3.13 µM (CMV polymerase; Concentration 3.13 μM, Table 6): 13%
- inhibition at 6.25 µM (CMV polymerase; Concentration 6.25 μM, Table 6): 15%
- inhibition at 12.5 µM (CMV polymerase; Concentration 12.5 μM, Table 6): 23%
- inhibition at 25 µM (CMV polymerase; Concentration 25 μM, Table 6): 30%
- inhibition at 50 µM (CMV polymerase; Concentration 50 μM, Table 6): 30%
- inhibition at 100 µM (CMV polymerase; Concentration 100 μM, Table 6): 38%
- inhibition at 200 µM (CMV polymerase; Concentration 200 μM, Table 6): 51%
- IC50 (CMV polymerase; Table 6): > 200 µM
- melting point: 84 to 86 °C

Compound: O=S(=O)(NCCSc1ccccc1)c1cc(Cl)c2ccc(/C=C/c3ccccc3)nc2c1O [Example 63, (E)-5-Chloro-8-hydroxy-2-(2-phenylethenyl)-N-[2-(phenylthio)ethyl]-7-quinolinesulfonamide]
- inhibition at 3.13 µM (CMV polymerase; Concentration 3.13 μM, Table 6): 29%
- inhibition at 6.25 µM (CMV polymerase; Concentration 6.25 μM, Table 6): 34%
- inhibition at 12.5 µM (CMV polymerase; Concentration 12.5 μM, Table 6): 49%
- inhibition at 25 µM (CMV polymerase; Concentration 25 μM, Table 6): 71%
- inhibition at 50 µM (CMV polymerase; Concentration 50 μM, Table 6): 74%
- inhibition at 100 µM (CMV polymerase; Concentration 100 μM, Table 6): 92%
- IC50 (CMV polymerase; Table 6): 11.4 µM
- melting point: 187 to 193 °C

Compound: Cc1ccc2c(Cl)cc(S(=O)(=O)NCCCN3CCOCC3)c(O)c2n1 [Example 36, 5-Chloro-8-hydroxy-2-methyl-N-[3-(4-morpholinyl)propyl]-7-quinoline-sulfonamide]
- inhibition at 3.13 µM (CMV polymerase; Concentration 3.13 uM, Table 3): -1%
- inhibition at 6.25 µM (CMV polymerase; Concentration 6.25 uM, Table 3): -3%
- inhibition at 12.5 µM (CMV polymerase; Concentration 12.5 uM, Table 3): 6%
- inhibition at 25 µM (CMV polymerase; Concentration 25 uM, Table 3): 0%
- inhibition at 50 µM (CMV polymerase; Concentration 50 uM, Table 3): 15%
- inhibition at 100 µM (CMV polymerase; Concentration 100 uM, Table 3): 3%
- inhibition at 200 µM (CMV polymerase; Concentration 200 uM, Table 3): 19%
- IC50 (CMV polymerase; Table 3): > 200 µM
- melting point: 245 to 257 °C

Compound: Cc1ccc2c(Cl)cc(S(=O)(=O)NCCc3ccc(Cl)cc3)c(O)c2n1 [Example 60, 5-Chloro-N-[2-(4-chlorophenyl)ethyl]-8-hydroxy-2-methyl-7-quinolinesulfonamide]
- inhibition at 3.13 µM (CMV polymerase; Concentration 3.13 μM, Table 6): 30%
- inhibition at 6.25 µM (CMV polymerase; Concentration 6.25 μM, Table 6): 19%
- inhibition at 12.5 µM (CMV polymerase; Concentration 12.5 μM, Table 6): 31%
- inhibition at 25 µM (CMV polymerase; Concentration 25 μM, Table 6): 32%
- inhibition at 50 µM (CMV polymerase; Concentration 50 μM, Table 6): 51%
- inhibition at 100 µM (CMV polymerase; Concentration 100 μM, Table 6): 55%
- inhibition at 200 µM (CMV polymerase; Concentration 200 μM, Table 6): 70%
- IC50 (CMV polymerase; Table 6): 57.4 µM
- melting point: 131 to 133 °C

Compound: Cc1ccc2c(Cl)cc(S(=O)(=O)N[C@H](C)c3ccccc3)c(O)c2n1 [Example 39, (R)-5-Chloro-8-hydroxy-2-methyl-N-(1-phenylethyl)-7-quinolinesulfonamide]
- inhibition at 3.13 µM (CMV polymerase; Concentration 3.13 uM, Table 3): 16%
- inhibition at 6.25 µM (CMV polymerase; Concentration 6.25 uM, Table 3): 28%
- inhibition at 12.5 µM (CMV polymerase; Concentration 12.5 uM, Table 3): 43%
- inhibition at 25 µM (CMV polymerase; Concentration 25 uM, Table 3): 41%
- inhibition at 50 µM (CMV polymerase; Concentration 50 uM, Table 3): 79%
- inhibition at 100 µM (CMV polymerase; Concentration 100 uM, Table 3): 71%
- inhibition at 200 µM (CMV polymerase; Concentration 200 uM, Table 3): 90%
- IC50 (CMV polymerase; Table 3): 21.6 µM
- melting point: 84 to 88 °C

Compound: Cc1ccc2c(Cl)cc(S(=O)(=O)NC(c3ccccc3)c3ccccc3)c(O)c2n1 [Example 38, 5-Chloro-N-(diphenylmethyl)-8-hydroxy-2-methyl-7-quinoline-sulfonamide]
- inhibition at 6.25 µM (CMV polymerase; Concentration 6.25 uM, Table 3): 36%
- inhibition at 12.5 µM (CMV polymerase; Concentration 12.5 uM, Table 3): 58%
- inhibition at 25 µM (CMV polymerase; Concentration 25 uM, Table 3): 62%
- inhibition at 50 µM (CMV polymerase; Concentration 50 uM, Table 3): 96%
- inhibition at 100 µM (CMV polymerase; Concentration 100 uM, Table 3): 97%
- IC50 (CMV polymerase; Table 3): 10.5 µM
- melting point: 115 to 119 °C
